The values that follow come from patent US20200345725A1, “Methods and Compositions for Treating Cancer” (Omeros Corporation, priority 2019, published 2020).

SMILES strings stand for the structures. “And” between values parts separate entries of the source, which are not always exact repeats. Identical values can stand only once. Marks after values point to notes of the source that are not given here.

One assay relates to human PBMCs. Kind of assay: Th1 cytokines in supernatants of stimulated human PBMC, GPR174 inhibitor with adenosine pathway inhibitors (Examples 15, 18-22). Type of assay: cell-based. Particulars: donor 7. On the procedure: Human PBMCs, obtained from a human volunteer donor, were dispensed at density of 1×10^6 cells/well in a 96-well flat-bottom plate and were stimulated in triplicate with 1 μg/mL anti-CD3 antibody (UCHT1) and 0.1 μg/mL anti-CD28 antibody (CD28.2) in the presence of:
Supernatants from these cells were collected at 24 hours post-stimulation and the levels of IFN-γ were determined by ELISA assay. Statistical analysis was carried out using one-way ANOVA with Tukey's post-hoc multiple comparison's correction.
Human PBMCs, obtained from a human volunteer donor (donor 1), were dispensed in X-vivo15 media (Lonza) supplemented with Glutamax, penicillin and streptomycin, at density of 1×10^6 cells/well in a 96-well flat-bottom plate and were stimulated with 1 μg/mL anti-CD3 antibody (UCHT1) and 0.1 μg/mL anti-CD28 antibody (CD28.2) in the presence of:
Supernatants from these cells were collected at 24 hours post-stimulation and the levels of IFN-γ, IL-2 and TNF were determined by ELISA assays.
Human PBMCs, obtained from two individual human volunteer donors (donor 2 and donor 3), were dispensed at density of 1×10^6 cells/well in a 96-well flat-bottom plate and were stimulated with 1 μg/mL anti-CD3 antibody (UCHT1) and 0.1 μg/mL anti-CD28 antibody (CD28.2) in the presence of:
Human PBMCs, obtained from twelve individual human volunteer donors were dispensed at density of 1×10^6 cells/well in a 96-well flat-bottom plate and were stimulated in triplicate with 1 μg/mL anti-CD3 antibody (UCHT1) and 0.1 μg/mL anti-CD28 antibody (CD28.2) in the presence of:
A total of 44 experiments using PBMC from 12 healthy donors were tested (9 donors for GM-CSF), with each donor tested in 1 to 8 separate experiments, depending on the donor (1 to 4 experiments each for GM-CSF). […] Cytokines were detected in supernatants with the Legendplex (Biolegend) or the MSB (MesoScale) platforms. […] One-way ANOVA with Tukey's post-hoc multiple comparisons correction was performed to identify significant differences (FC, mean fold change; ****, p<0.0001, ***, p<0.001; **, p<0.01; *, p<0.05, ns, not significant).
Human PBMC (1×10^6 cells/well in a 96-well flat-bottom plate) obtained from donor 3 and donor 6 were stimulated with 1 μg/mL anti-CD3 antibody (UCHT1) and 0.1 μg/mL anti-CD28 antibody (CD28.2) in the presence of:
Supernatants from these cells were collected at 24 hours post-stimulation and the levels of IFN-γ, IL-2, and TNF were determined with the MSD platform (MesoScale Discovery).
Human PBMC (1×10^6 cells/well in a 96-well flat-bottom plate) obtained from donor 7 were stimulated with 1 μg/mL […] (UCHT1) and 0.1 μg/mL anti-CD28 antibody (CD28.2) in the presence of:
Supernatants from these cells were collected at 24 hours post-stimulation and the levels of IFN-γ, IL-2, TNF and GM-CSF were determined with the MSD platform (MesoScale Discovery).
Supernatants from these cells were collected at 24 hours post-stimulation and the levels of IFN-γ, IL-2 and TNF were determined with the MSD platform (MesoScale Discovery).

A further assay has as its target GPR174 (Homo sapiens, UniProt Q9BXC1). The assay is described as follows: CRE-Luc reporter Gs signaling assay with GPR174. Type of assay: cell-based. Also on record: host or cells: HEK293 or CHO cell lines (ATCC).
Setting [1] is: high and low concentrations, ZM 0.1 μM.
Where [2] appears, read: no ZM, 0.3 μM (compound 20: 3 μM).
Where [3] appears, read: no ZM, 1 μM (compound 20: 10 μM).
Setting [4] is: with ZM-241385 0.1 μM, 0.3 μM (compound 20: 3 μM).
The mark [5] stands for this setting: with ZM-241385 0.1 μM, 1 μM (compound 20: 10 μM), label ZM = ZM alone.

GPR174, sequence (Q9BXC1 whole entry): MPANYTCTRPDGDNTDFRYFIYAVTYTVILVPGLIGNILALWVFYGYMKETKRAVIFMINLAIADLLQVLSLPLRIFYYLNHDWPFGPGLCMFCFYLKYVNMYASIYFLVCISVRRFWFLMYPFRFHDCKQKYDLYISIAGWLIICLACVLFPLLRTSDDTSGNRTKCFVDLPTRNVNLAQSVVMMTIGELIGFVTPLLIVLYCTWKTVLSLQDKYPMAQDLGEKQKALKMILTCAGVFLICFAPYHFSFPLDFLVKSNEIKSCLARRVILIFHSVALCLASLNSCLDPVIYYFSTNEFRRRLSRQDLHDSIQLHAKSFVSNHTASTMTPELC

For the compound `O=C(c1ccccc1)N1CCN(c2cc(N3CCCCC3)c(F)cc2[N+](=O)[O-])CC1` [compound 6], in the assay on human PBMCs (setting [1]), the “synergy with ZM on GM-CSF (greater than the sum of the increases with each inhibitor alone)” value was “synergized with ZM”, the “synergy with ZM on IFN-γ (greater than the sum of the increases with each inhibitor alone)” value was “synergized with ZM”, the “synergy with ZM on IL-2 (greater than the sum of the increases with each inhibitor alone)” value was “synergized with ZM” and the “synergy with ZM on TNF (greater than the sum of the increases with each inhibitor alone)” value is “synergized with ZM”. Moreover, in the assay with human PBMCs (setting [2]), the “GM-CSF, ratio relative to vehicle control” value is 3.9*; the “IFN-γ, ratio relative to vehicle control” value is 2.0*; the “IL-2, ratio relative to vehicle control” value is reported as 1.5*; the “TNF, ratio relative to vehicle control” value was 2.1*. In addition, in the assay with human PBMCs (setting [3]), the “GM-CSF, ratio relative to vehicle control” value is on record as 2.9*; the “IFN-γ, ratio relative to vehicle control” value is 1.9*; the “IL-2, ratio relative to vehicle control” value is 1.5*; the “TNF, ratio relative to vehicle control” value is listed as 2.1*. In the assay on human PBMCs (setting [4]), the “GM-CSF, ratio relative to vehicle control” value is 6.2*; the “IFN-γ, ratio relative to vehicle control” value was 3.1*; the “IL-2, ratio relative to vehicle control” value is on record as 1.9*; the “TNF, ratio relative to vehicle control” value is on record as 3.4*. Further, in the assay with human PBMCs (setting [5]), the “GM-CSF, ratio relative to vehicle control” value is 6.0*; the “IFN-γ, ratio relative to vehicle control” value is given as 3.8*; the “IL-2, ratio relative to vehicle control” value is listed as 2.1*; the “TNF, ratio relative to vehicle control” value is listed as 4.0*. Further, the “Gs pathway in the presence of GPR174 (CRE-Luc reporter)” value at GPR174 (increasing concentrations of compound) is recorded as “inhibited”. Also, at GPR174 (pCRE-Luc reporter), the “Fold decrease in Gs signaling activity” value is recorded as 3.8 fold. Further, the EC50 (as a rule, the concentration giving half of the maximal effect) at GPR174 (pCRE-Luc reporter, multiple values = separate experiments) was 400 nM and 300 nM.
